Key:
[1] = target: T1, Mitogen-activated protein kinase kinase kinase kinase 2 (Homo sapiens) (UniProt Q12851); assay: Inhibition of human wild type GCK (M1 to G318 residues) expressed in mammalian expression system at 1 uM by KINOMEScan assay relative to control
T1 sequence (whole entry): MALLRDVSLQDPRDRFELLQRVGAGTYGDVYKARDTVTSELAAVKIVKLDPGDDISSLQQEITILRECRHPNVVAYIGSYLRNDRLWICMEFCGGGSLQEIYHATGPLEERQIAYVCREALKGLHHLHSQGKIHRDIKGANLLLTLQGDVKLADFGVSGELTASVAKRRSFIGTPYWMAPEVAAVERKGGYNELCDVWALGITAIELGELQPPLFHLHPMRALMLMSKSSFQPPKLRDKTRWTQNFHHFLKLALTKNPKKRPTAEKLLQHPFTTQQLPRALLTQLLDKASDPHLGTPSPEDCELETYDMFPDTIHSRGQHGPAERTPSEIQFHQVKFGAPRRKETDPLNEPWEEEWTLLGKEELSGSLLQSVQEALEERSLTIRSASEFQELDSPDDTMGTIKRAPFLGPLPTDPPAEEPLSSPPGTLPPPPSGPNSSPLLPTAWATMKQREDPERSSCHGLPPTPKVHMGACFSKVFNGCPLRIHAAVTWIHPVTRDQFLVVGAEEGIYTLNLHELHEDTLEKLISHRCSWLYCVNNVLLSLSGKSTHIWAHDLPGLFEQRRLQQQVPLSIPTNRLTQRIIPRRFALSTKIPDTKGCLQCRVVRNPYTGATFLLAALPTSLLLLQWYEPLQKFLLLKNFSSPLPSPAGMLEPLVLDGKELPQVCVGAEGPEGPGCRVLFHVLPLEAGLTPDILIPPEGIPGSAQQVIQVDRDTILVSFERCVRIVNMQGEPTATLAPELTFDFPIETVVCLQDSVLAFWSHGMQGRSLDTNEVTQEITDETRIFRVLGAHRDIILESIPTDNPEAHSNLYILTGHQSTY

[2] = target: T2, Mitogen-activated protein kinase kinase kinase kinase 2 (Homo sapiens, UniProt Q12851); assay: Binding affinity to human wild type GCK (M1 to G318 residues) expressed in mammalian expression system by KINOMEScan assay
T2 sequence (Q12851 whole entry): T1 sequence (whole entry)

[3] = target: Tyrosine-protein kinase SYK (Homo sapiens) (UniProt P43405); assay: Inhibition of human wild type partial length SYK (D354 to N635 residues) expressed in bacterial expression system at 1 uM by KINOMEScan assay relative to control

Structure (SMILES) | inhibition [1] | Kd [2] | inhibition [3]
NC(=O)c1cccnc1Nc1nc(-c2ccc3c(c2)OCO3)cc2nccn12 | 94.3% | 49 nM | 24%
CCCNC(=O)c1cccnc1Nc1nc(-c2ccccc2)cc2nccn12 | 16% | – | 5%
Cc1cccc(-c2cc3nccn3c(Nc3ncccc3C(N)=O)n2)c1 | 100% | – | 74%
CCC(C)NC(=O)c1cccnc1Nc1nc(-c2ccccc2)cc2nccn12 (stereo not given) | 29% | – | 1%
NC(=O)c1cccnc1Nc1nc(-c2ccccc2)cc2nccn12 | 99.5% | – | 73%
CCCOc1ccc(-c2cc3nccn3c(Nc3ncccc3C(N)=O)n2)cc1 | 86% | – | 51%
COc1cccc(-c2cc3nccn3c(Nc3ncccc3C(N)=O)n2)c1 | 97.2% | 59 nM | 37%
Cc1ccc(-c2cc3nccn3c(Nc3ncccc3C(N)=O)n2)cc1 | 99.2% | – | 58%
CNC(=O)c1cccnc1Nc1nc(-c2ccccc2)cc2nccn12 | 24% | – | 30%
COc1ccccc1-c1cc2nccn2c(Nc2ncccc2C(N)=O)n1 | 100% | – | 61%
COc1ccc(-c2cccc(-c3cc4nccn4c(Nc4ncccc4C(N)=O)n3)c2)cc1 | 84% | 220 nM | 5%
COc1ccc(-c2cc3nccn3c(Nc3ncccc3C(N)=O)n2)c(OC)c1 | 100% | – | 80%
CNC(=O)c1cccnc1Nc1nc(-c2ccc(OC)c(OC)c2)cc2nccn12 | 0% | – | 0%
CNC(=O)c1cccnc1Nc1cc(-c2ccc(OC)cc2)cc2[nH]ccc12 | 2% | – | 0%
O=C(NCc1ccccc1)c1cccnc1Nc1nc(-c2ccccc2)cc2nccn12 | 2% | – | 0%
CCCCNC(=O)c1cccnc1Nc1nc(-c2ccccc2)cc2nccn12 | 8% | – | 8%
CC(C)NC(=O)c1cccnc1Nc1nc(-c2ccccc2)cc2nccn12 | 0% | – | 0%
COc1cc(OC)cc(-c2cc3nccn3c(Nc3ncccc3C(N)=O)n2)c1 | 100% | – | 80%
COc1ccc(-c2cc3nccn3c(Nc3ncccc3C(N)=O)n2)cc1OC | 100% | – | 85%
CN(C)C(=O)c1cccnc1Nc1nc(-c2ccccc2)cc2nccn12 | 58% | – | 10%
CNC(=O)c1cccnc1Nc1cc(-c2ccccc2)cc2[nH]ccc12 | 29% | – | 1%
CCCCOc1ccc(-c2cc3nccn3c(Nc3ncccc3C(N)=O)n2)cc1 | 47% | – | 4%
COc1ccc(-c2cc3nccn3c(Nc3ncccc3C(N)=O)n2)cc1 | 99.1% | – | 59%
CCNC(=O)c1cccnc1Nc1nc(-c2ccccc2)cc2nccn12 | 20% | – | 19%
CNC(=O)c1cccnc1Nc1nc(-c2cccc(OC)c2)cc2nccn12 | 0% | – | 1%
CNC(=O)c1cccnc1Nc1nc(-c2ccc(OC)cc2)cc2nccn12 | 1% | – | 0%
Cc1ccccc1-c1cc2nccn2c(Nc2ncccc2C(N)=O)n1 | 94.7% | 100 nM | 11%
CNC(=O)c1cccnc1Nc1nc(-c2ccc3c(c2)OCO3)cc2nccn12 | 1% | – | 9%
